From PMC7508162 (Frontiers in Pharmacology, 2020)
Entries after “also recorded” stand apart in the source; their conditions may differ. Like-named read-outs stand apart in the source and are kept apart here.

Target: T1, human CD39 (Homo sapiens, UniProt P49961)
T1 sequence (P49961 1-510): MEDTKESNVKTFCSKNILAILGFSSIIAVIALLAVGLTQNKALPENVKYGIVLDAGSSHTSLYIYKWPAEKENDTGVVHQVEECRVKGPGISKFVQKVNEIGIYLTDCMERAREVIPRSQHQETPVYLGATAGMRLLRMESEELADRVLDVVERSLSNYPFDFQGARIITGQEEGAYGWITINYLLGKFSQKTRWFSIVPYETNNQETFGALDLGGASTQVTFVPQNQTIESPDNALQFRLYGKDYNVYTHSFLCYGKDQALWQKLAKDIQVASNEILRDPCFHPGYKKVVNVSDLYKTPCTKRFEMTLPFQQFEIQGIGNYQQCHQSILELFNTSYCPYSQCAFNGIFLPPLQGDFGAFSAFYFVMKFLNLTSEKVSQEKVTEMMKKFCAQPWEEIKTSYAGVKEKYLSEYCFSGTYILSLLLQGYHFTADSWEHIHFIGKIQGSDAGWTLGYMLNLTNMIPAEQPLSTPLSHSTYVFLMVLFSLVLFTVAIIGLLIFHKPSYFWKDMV
Assay: Fluorescence capillary electrophoresis assay for CD39
Type: biochemical
Set-up: Human umbilical cord membrane preparations (250 ng) natively expressing high amounts of CD39; from tissue; host or cells: human umbilical cord membranes
Conditions: for Ki: human umbilical cord membrane preparation, n = 3, Cheng-Prusoff; for CD39 inhibition (in words) / IC50 (in words): human CD39; for inhibition at 10 µM: read-out: % inhibition at 10 µM
Protocol: They were minced and homogenized with a polytron in 95 mM NaCl, 0.1 mM phenylmethylsulfonyl fluoride (PMSF), and 45 mM Tris solution, pH 7.6. […] The pellets were resuspended in 5 mM Tris buffer solution, pH 8.0 and 10% glycerol. All purification steps were performed at 4°C. The preparations were kept at −80°C.
For inhibition screening, three independent experiments were performed. […] The reaction buffer contained 10 mM HEPES, 2 mM CaCl2, 1 mM MgCl2, pH 7.4. The samples were incubated at 37°C for 4 min, and the enzymatic reaction was terminated by heating at 90°C for 5 min. The solution was then diluted 1:20 with reaction buffer to perform separation of nucleotides by capillary electrophoresis (CE) followed by laser-induced fluorescence (LIF) detection. […] Three independent experiments were performed, and curves were calculated by GraphPad Prism 8 software (GraphPad software, San Diego, CA, USA).
Analysis was carried out using a P/ACE MDQ capillary electrophoresis system (Beckman Instruments, Fullerton, CA, USA). The separation was performed in a polyacrylamide-coated capillary [30 cm (10 cm effective length) × 50 µm (id), × 360 µm (od)]. Before each run, the capillary was rinsed with the background electrolyte [50 mM phosphate buffer (pH 6.5)] for 1 min at 30 psi. Samples were electrokinetically injected by applying a voltage of -6 kV for 30 s at the capillary outlet, and the fluorescent nucleotide derivatives were separated by voltage application of -15 kV. […] Data collection and peak area analysis were performed by the P/ACE MDQ software 32 KARAT obtained from Beckman Coulter (Fullerton, CA, USA).

[1] = fluorescent substrate PSB-017621A 0.5 µM, read-out: Ki ± SEM
[2] = ratio of Ki values, fluorescence CE assay
[3] = screening at 10 µM, fluorescent substrate PSB-017621A 0.5 µM

Ki [1]	inhibition at 10 µM [3]	Structure (SMILES)	further results
40.1 ± 7 µM	–	CN(C)c1ncnc2c1ncn2[C@@H]1O[C@H](COP(=O)(O)OP(=O)(O)C(Br)(Br)P(=O)(O)O)[C@@H](O)[C@H]1O [Compound 24, (Dibromo((((((2R,3S,4R,5R)-5-(6-(dimethylamino)-9H-purin-9-yl)-3,4-dihydroxytetrahydro-furan-2-yl)methoxy)-(hydroxy)phosphoryl)oxy)(hydroxy)phosphoryl)methyl)-phosphonic Acid]	fold decrease in CD39 potency compared to I [2]: 41 fold
6.48 ± 2.6 µM	–	CCN(C)c1ncnc2c1ncn2[C@@H]1O[C@H](COP(=O)(O)OP(=O)(O)C(Br)(Br)P(=O)(O)O)[C@@H](O)[C@H]1O [Compound 25, (Dibromo((((((2R,3S,4R,5R)-5-(6-(ethyl(methyl)amino)-9H-purin-9-yl)-3,4-dihydroxytetra-hydrofuran-2-yl)methoxy)-(hydroxy)phosphoryl)oxy)(hydroxy)phosphoryl)methyl)-phosphonic Acid]	fold decrease in CD39 potency compared to I [2]: about 7 fold
4.04 ± 2.12 µM	–	CCCN(C)c1ncnc2c1ncn2[C@@H]1O[C@H](COP(=O)(O)OP(=O)(O)C(Br)(Br)P(=O)(O)O)[C@@H](O)[C@H]1O [Compound 26, (Dibromo((((((2R,3S,4R,5R)-3,4-dihydroxy-5-(6-(methyl-(propyl)amino)-9H-purin-9-yl)tetra-hydrofuran-2-yl)-methoxy)(hydroxy)phosphoryl)oxy)(hydroxy)phosphoryl)-methyl)phosphonic Acid]	–
2.68 ± 1.11 µM	–	CCCN(CCC)c1ncnc2c1ncn2[C@@H]1O[C@H](COP(=O)(O)OP(=O)(O)C(Br)(Br)P(=O)(O)O)[C@@H](O)[C@H]1O [Compound 27, (Dibromo((((((2R,3S,4R,5R)-5-(6-(dipropylamino)-9H-purin-9-yl)-3,4-dihydroxytetrahydro-furan-2-yl)methoxy)-(hydroxy)phosphoryl)oxy)(hydroxy)phosphoryl)methyl)-phosphonic Acid]	–
2.22 ± 0.02 µM	–	CCCN(CC)c1ncnc2c1ncn2[C@@H]1O[C@H](COP(=O)(O)OP(=O)(O)C(Br)(Br)P(=O)(O)O)[C@@H](O)[C@H]1O [Compound 28, (Dibromo((((((2R,3S,4R,5R)-5-(6-(ethyl(propyl)amino)-9H-purin-9-yl)-3,4-dihydroxytetra-hydrofuran-2-yl)methoxy)-(hydroxy)phosphoryl)oxy)(hydroxy)phosphoryl)methyl)-phosphonic Acid]	–
5.26 ± 0.22 µM	–	Nc1ncnc2c1ncn2[C@@H]1O[C@H](COP(=O)(O)OP(=O)(O)C(Br)(Br)P(=O)(O)O)[C@@H](O)[C@H]1O [Compound 38, (((((((2R,3S,4R,5R)-5-(6-amino-9H-purin-9-yl)-3,4-dihydroxytetrahydrofuran-2-yl)methoxy)-(hydroxy)-phosphoryl)oxy)(hydroxy)phosphoryl)dibromomethyl)-phosphonic Acid]	IC50 (in words): low micromolar range; fold decrease in CD39 potency compared to I [2]: about 5 fold

The next lines start with the molecule.

Structure (SMILES)	Ki [1]	inhibition at 10 µM [3]	further results
O=P(O)(OC[C@H]1O[C@@H](n2cnc3c(NCc4ccccc4)ncnc32)[C@H](O)[C@@H]1O)OP(=O)(O)C(Br)(Br)P(=O)(O)O [Compound 29, (((((((2R,3S,4R,5R)-5-(6-(Benzylamino)-9H-purin-9-yl)-3,4-dihydroxytetrahydrofuran-2-yl)methoxy)(hydroxy)-phosphoryl)oxy)(hydroxy)phosphoryl)dibromomethyl)-phosphonic Acid]	> 10 µM	4%	CD39 inhibition (in words): abolishment of the CD39-inhibiting activity
O=P(O)(OC[C@H]1O[C@@H](n2cnc3c(NCCc4ccccc4)ncnc32)[C@H](O)[C@@H]1O)OP(=O)(O)C(Br)(Br)P(=O)(O)O [Compound 30, (Dibromo((((((2R,3S,4R,5R)-3,4-dihydroxy-5-(6-(phenethylamino)-9H-purin-9-yl)tetrahydrofuran-2-yl)-methoxy)(hydroxy)phosphoryl)oxy)(hydroxy)phosphoryl)-methyl)phosphonic Acid]	4.82 ± 0.21 µM	–	–
CNc1ncnc2c1nc(NC1CC1)n2[C@@H]1O[C@H](COP(=O)(O)OP(=O)(O)C(Br)(Br)P(=O)(O)O)[C@@H](O)[C@H]1O [Compound 32, (Dibromo((((((2R,3S,4R,5R)-5-(8-(cyclopropylamino)-6-(methylamino)-9H-purin-9-yl)-3,4-di-hydroxytetrahydrofuran-2-yl)methoxy)(hydroxy)-phosphoryl)oxy)(hydroxy)phosphoryl)methyl)phosphonic-Acid]	5.72 ± 0.86 µM	–	–
CCCCNc1nc2c(N(C)C)ncnc2n1[C@@H]1O[C@H](COP(=O)(O)OP(=O)(O)C(Br)(Br)P(=O)(O)O)[C@@H](O)[C@H]1O [Compound 34, (Dibromo((((((2R,3S,4R,5R)-5-(8-(butylamino)-6-(dimethylamino)-9H-purin-9-yl)-3,4-di-hydroxytetrahydrofuran-2-yl)methoxy)(hydroxy)-phosphoryl)oxy)(hydroxy)phosphoryl)methyl)-phosphonic Acid]	~10 µM	54%	–
CCN(CC)c1ncnc2c1nc(NC)n2[C@@H]1O[C@H](COP(=O)(O)OP(=O)(O)C(Br)(Br)P(=O)(O)O)[C@@H](O)[C@H]1O [Compound 35, (Dibromo((((((2R,3S,4R,5R)-5-(6-(diethylamino)-8-(methylamino)-9H-purin-9-yl)-3,4-di-hydroxytetrahydrofuran-2-yl)methoxy)(hydroxy)phosphoryl)-oxy)(hydroxy)phosphoryl)methyl)phosphonic Acid]	~10 µM	59%	–
CCCCSc1nc2c(NC)ncnc2n1[C@@H]1O[C@H](COP(=O)(O)OP(=O)(O)C(Br)(Br)P(=O)(O)O)[C@@H](O)[C@H]1O [Compound 36, (Dibromo((((((2R,3S,4R,5R)-5-(8-(butylthio)-6-(methylamino)-9H-purin-9-yl)-3,4-dihydroxy-tetrahydrofuran-2-yl)methoxy)(hydroxy)phosphoryl)oxy)-(hydroxy)phosphoryl)methyl)phosphonic Acid]	> 10 µM	39%	–
Nc1ncnc2c1ncn2[C@@H]1O[C@H](COP(=O)(O)OP(=O)(O)C(Cl)(Cl)P(=O)(O)O)[C@@H](O)[C@H]1O [Compound 39, (((((((2R,3S,4R,5R)-5-(6-Amino-9H-purin-9-yl)-3,4-dihydroxytetrahydrofuran-2-yl)methoxy)-(hydroxy)-phosphoryl)oxy)(hydroxy)phosphoryl)dichloromethyl)-phosphonic Acid]	9.53 ± 1.46 µM	–	IC50 (in words): low micromolar range; fold less potent than dibromo-derivative 38 at CD39 [2]: about 2 fold
Nc1ncnc2c1ncn2[C@@H]1O[C@H](COP(=O)(O)CP(=O)(O)O)[C@@H](O)[C@H]1O [Compound 42, α,β-Methylene-ADP, reference compound]	–	–	Ki (Ki ± SEM, fluorescent substrate PSB-017621A 0.5 µM): > 10 µM; inhibition at 10 µM: 14%
Nc1ncnc2c1ncn2[C@@H]1O[C@H](COP(=O)(O)OP(=O)(O)CP(=O)(O)O)[C@@H](O)[C@H]1O [Compound 43, β,γ-Methylene-ATP, reference compound]	> 10 µM	23%	CD39 inhibition (in words): virtually inactive; also recorded: no significant inhibition
